Tests used:
[1] = target: T1, ATP-binding cassette sub-family C member 4 (Homo sapiens, UniProt O15439); experiment: TP_TRANSPORTER: inhibition of E217betaG in the presence of Flurbiprofen at a concentration of 50uM in membrane vesicles from MRP4-expressing Sf9 cells; format: functional, cell membranes, Membrane vesicle; design: scale not given: the % may be the effect or the level left; conditions: sf9, 50 µM
T1 sequence (O15439 whole entry): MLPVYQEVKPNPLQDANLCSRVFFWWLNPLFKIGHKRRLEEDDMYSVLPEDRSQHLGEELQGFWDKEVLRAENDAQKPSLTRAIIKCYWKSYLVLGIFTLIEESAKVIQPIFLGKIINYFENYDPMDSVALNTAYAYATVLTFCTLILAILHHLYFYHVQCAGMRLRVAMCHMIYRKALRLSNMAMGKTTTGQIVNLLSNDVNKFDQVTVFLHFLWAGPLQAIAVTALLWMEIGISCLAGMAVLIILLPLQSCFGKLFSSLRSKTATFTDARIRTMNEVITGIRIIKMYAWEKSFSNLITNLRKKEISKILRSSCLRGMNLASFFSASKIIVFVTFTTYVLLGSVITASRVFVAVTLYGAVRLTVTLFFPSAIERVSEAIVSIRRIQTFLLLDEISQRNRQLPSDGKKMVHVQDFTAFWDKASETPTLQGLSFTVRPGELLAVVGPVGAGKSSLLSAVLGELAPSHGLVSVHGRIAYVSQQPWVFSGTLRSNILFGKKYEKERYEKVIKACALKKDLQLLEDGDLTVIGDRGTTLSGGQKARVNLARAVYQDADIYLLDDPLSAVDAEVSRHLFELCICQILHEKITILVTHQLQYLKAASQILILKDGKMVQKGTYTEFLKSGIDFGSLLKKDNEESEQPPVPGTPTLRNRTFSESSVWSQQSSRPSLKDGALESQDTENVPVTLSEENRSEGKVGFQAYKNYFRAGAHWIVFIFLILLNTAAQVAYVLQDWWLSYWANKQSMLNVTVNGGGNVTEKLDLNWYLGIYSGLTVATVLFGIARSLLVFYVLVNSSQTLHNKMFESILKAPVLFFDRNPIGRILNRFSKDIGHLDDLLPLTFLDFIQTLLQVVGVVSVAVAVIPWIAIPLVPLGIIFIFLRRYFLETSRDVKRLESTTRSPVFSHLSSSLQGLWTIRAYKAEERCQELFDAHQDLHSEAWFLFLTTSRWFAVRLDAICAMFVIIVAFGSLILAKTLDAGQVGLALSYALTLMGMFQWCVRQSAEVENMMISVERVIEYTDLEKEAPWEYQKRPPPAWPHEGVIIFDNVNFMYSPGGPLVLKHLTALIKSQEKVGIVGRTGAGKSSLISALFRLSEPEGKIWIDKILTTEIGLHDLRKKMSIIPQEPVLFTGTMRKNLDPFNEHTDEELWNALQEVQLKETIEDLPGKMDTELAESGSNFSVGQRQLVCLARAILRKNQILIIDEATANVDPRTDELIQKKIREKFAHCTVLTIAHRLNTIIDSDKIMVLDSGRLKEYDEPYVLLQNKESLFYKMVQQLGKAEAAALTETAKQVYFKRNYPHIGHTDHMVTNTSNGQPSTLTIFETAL

[2] = target: T2, MRP1 (Multidrug resistance-associated protein 1) (Homo sapiens, UniProt P33527); experiment: TP_TRANSPORTER: inhibition of E217betaG in the presence of Ibuprofen at a concentration of 200uM in membrane vesicles from MRP1-expressing Sf9 cells; format: functional, cell membranes, Membrane vesicle; design: scale not given: the % may be the effect or the level left; conditions: probe E217betaG, read-out: Activity
T2 sequence (P33527 whole entry): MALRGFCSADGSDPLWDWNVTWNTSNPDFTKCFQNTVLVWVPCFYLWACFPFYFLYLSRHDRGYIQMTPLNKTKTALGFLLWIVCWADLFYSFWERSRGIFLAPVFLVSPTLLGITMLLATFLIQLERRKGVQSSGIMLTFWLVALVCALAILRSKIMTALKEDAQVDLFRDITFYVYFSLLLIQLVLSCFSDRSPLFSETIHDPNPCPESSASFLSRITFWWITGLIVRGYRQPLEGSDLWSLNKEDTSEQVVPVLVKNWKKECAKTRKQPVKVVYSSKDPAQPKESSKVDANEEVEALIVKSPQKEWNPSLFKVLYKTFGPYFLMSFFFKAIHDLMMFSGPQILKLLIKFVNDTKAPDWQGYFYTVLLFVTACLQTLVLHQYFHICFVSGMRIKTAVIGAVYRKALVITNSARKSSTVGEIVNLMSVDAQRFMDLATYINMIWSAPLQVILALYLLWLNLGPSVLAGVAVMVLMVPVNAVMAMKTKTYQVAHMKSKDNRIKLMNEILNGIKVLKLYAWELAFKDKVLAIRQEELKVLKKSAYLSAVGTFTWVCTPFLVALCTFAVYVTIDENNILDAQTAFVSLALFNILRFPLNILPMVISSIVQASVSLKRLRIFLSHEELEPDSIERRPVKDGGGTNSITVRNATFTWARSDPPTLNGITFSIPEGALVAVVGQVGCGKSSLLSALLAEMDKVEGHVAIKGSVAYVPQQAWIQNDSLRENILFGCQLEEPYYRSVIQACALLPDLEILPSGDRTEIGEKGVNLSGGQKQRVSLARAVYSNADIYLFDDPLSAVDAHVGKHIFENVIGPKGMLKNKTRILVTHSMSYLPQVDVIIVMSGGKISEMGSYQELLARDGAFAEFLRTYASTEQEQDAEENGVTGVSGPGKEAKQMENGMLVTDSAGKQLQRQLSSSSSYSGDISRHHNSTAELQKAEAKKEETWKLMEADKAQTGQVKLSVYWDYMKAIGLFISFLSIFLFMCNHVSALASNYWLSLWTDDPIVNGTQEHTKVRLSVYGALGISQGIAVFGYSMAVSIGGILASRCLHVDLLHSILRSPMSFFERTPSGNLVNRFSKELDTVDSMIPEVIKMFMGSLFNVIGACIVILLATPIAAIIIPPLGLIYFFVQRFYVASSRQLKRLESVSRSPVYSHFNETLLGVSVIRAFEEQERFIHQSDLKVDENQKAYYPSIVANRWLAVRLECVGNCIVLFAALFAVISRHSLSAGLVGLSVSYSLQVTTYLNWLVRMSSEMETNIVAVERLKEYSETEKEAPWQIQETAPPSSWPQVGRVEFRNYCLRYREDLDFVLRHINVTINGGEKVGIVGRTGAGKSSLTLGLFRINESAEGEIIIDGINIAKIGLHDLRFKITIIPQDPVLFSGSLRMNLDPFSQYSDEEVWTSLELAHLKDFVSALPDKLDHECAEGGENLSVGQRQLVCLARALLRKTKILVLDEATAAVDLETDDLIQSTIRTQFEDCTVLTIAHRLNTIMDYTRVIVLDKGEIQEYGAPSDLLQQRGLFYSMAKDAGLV

[3] = target: T1, ATP-binding cassette sub-family C member 4; experiment: TP_TRANSPORTER: inhibition of E217betaG in the presence of Ibuprofen at a concentration of 200uM in membrane vesicles from MRP4-expressing Sf9 cells; format: functional, cell membranes, Membrane vesicle; design: scale not given: the % may be the effect or the level left; conditions: sf9, 200 µM
[4] = target: MRP5 (ATP-binding cassette sub-family C member 5) (Homo sapiens, UniProt O15440); experiment: TP_TRANSPORTER: inhibition of alaninyl-d4TMP by Prostaglandin E1 at a concentration of 20uM in membrane vesicle from MRP5-expressing HEK293 cell; format: functional, cell membranes; design: scale not given: the % may be the effect or the level left; conditions: membrane vesicles from MRP5-expressing HEK293 cells, probe alaninyl-d4TMP, read-out: Activity
Chain of MRP5 (ATP-binding cassette sub-family C member 5) (O15440 whole entry): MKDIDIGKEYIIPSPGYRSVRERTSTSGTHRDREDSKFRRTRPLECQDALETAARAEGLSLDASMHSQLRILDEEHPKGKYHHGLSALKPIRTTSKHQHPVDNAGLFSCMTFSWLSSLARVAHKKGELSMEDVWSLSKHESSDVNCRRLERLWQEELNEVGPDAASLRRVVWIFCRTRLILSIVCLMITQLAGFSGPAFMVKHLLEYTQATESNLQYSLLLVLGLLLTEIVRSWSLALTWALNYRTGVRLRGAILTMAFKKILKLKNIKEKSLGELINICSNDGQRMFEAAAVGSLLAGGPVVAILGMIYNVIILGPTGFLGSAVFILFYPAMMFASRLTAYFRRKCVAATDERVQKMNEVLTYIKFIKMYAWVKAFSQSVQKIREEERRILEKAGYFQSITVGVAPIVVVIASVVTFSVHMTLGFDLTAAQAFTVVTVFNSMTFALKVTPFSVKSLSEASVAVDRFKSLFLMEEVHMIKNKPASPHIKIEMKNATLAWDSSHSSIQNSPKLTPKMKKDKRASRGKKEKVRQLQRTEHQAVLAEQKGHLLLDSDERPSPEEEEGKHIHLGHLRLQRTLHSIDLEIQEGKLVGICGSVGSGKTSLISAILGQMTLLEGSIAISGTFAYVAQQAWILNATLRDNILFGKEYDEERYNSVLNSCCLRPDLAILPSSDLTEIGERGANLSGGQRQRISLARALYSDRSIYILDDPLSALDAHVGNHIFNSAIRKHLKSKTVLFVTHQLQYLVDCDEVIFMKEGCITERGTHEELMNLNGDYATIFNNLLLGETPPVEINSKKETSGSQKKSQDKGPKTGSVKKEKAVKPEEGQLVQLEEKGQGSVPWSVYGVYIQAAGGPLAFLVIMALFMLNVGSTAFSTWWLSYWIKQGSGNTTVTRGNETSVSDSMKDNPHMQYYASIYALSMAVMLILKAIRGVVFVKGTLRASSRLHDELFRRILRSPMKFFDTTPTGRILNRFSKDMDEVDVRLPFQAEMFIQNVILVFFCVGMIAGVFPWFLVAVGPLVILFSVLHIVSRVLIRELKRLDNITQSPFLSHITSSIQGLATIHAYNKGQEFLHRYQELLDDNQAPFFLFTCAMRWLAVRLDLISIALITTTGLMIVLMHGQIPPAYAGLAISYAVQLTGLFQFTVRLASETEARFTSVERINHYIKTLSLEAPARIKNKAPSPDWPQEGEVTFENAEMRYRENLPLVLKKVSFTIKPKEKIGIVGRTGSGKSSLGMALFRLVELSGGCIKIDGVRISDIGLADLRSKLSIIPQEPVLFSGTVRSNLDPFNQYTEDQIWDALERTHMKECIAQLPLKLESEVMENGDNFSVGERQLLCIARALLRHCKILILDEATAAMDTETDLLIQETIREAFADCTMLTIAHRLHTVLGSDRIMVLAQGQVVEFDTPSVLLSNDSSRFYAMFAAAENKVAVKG

[5] = target: Multidrug resistance-associated protein 1 (Homo sapiens, UniProt P33527); experiment: TP_TRANSPORTER: inhibition of E217betaG in the presence of Indomethacin at a concentration of 50uM in membrane vesicles from MRP1-expressing Sf9 cells; format: functional, cell membranes, Membrane vesicle; design: scale not given: the % may be the effect or the level left; conditions: sf9, 50 µM
Chain of Multidrug resistance-associated protein 1 (P33527 whole entry): as the sequence (P33527 whole entry) above

[6] = target: T1, ATP-binding cassette sub-family C member 4; experiment: TP_TRANSPORTER: inhibition of E217betaG in the presence of Indomethacin at a concentration of 50uM in membrane vesicles from MRP4-expressing Sf9 cells; format: functional, cell membranes, Membrane vesicle; design: scale not given: the % may be the effect or the level left; conditions: sf9, 50 µM
[7] = target: T1, ATP-binding cassette sub-family C member 4; experiment: TP_TRANSPORTER: inhibition of E217betaG in the presence of Ketoprofen at a concentration of 50uM in membrane vesicles from MRP4-expressing Sf9 cells; format: functional, cell membranes, Membrane vesicle; design: scale not given: the % may be the effect or the level left; conditions: sf9, 50 µM
[8] = target: T2, MRP1 (Multidrug resistance-associated protein 1); experiment: TP_TRANSPORTER: inhibition of alaninyl-d4TMP in the presence of Thromboxane B2 at a concentration of 20uM in membrane vesicles from MRP1-expressing Sf9 cells; format: functional, cell membranes, Membrane vesicle; design: scale not given: the % may be the effect or the level left; conditions: probe alaninyl-d4TMP, read-out: Activity
[9] = target: Multidrug resistance associated protein (Homo sapiens) (UniProt Q96QA9); experiment: TP_TRANSPORTER: inhibition of alaninyl-d4TMP by Thromboxane B2 at a concentration of 20uM in membrane vesicle from MRP3-expressing Sf9 cells; format: functional, cell membranes; design: scale not given: the % may be the effect or the level left
[10] = target: ATP-binding cassette sub-family C member 5 (Homo sapiens, UniProt O15440); experiment: TP_TRANSPORTER: inhibition of alaninyl-d4TMP by Thromboxane B2 at a concentration of 20uM in membrane vesicle from MRP5-expressing HEK293 cells; format: functional, cell membranes; design: scale not given: the % may be the effect or the level left; conditions: hek293, 20 µM
Chain of ATP-binding cassette sub-family C member 5 (O15440 whole entry): as the sequence (O15440 whole entry) above

[11] = target: T3, MRP4 (ATP-binding cassette sub-family C member 4) (Homo sapiens, UniProt O15439); experiment: TP_TRANSPORTER: inhibition of alaninyl-d4TMP in the presence of Thromboxane B2 at a concentration of 20uM in membrane vesicles from MRP4-expressing Sf9 cells; format: functional, cell membranes, Membrane vesicle; design: scale not given: the % may be the effect or the level left; conditions: probe alaninyl-d4TMP, read-out: Activity
T3 sequence (O15439 whole entry): T1 sequence (O15439 whole entry)

[12] = target: T1, ATP-binding cassette sub-family C member 4; experiment: TP_TRANSPORTER: inhibition of E217betaG in the presence of Rofecoxib at a concentration of 100uM in membrane vesicles from MRP4-expressing Sf9 cells; format: functional, cell membranes, Membrane vesicle; design: scale not given: the % may be the effect or the level left; conditions: sf9, 100 µM
[13] = substrate: CCCCC[C@H](O)/C=C/[C@H]1[C@H](O)CC(=O)[C@@H]1C/C=C\CCCC(=O)O; experiment: (§1) TP_TRANSPORTER: uptake (vesicle) in membrane vesicles from MRP4-expressing Sf9 cells; format: functional, cell membranes
[14] = substrate: CCCCC[C@H](O)/C=C/[C@H]1[C@H](O)CC(=O)[C@@H]1CCCCCCC(=O)O; experiment: as §1; format: functional, cell membranes

Molecule: CC(C(=O)O)c1ccc(-c2ccccc2)c(F)c1 (centres undefined) [FLURBIPROFEN]
- Activity [1]: 23%

Molecule: CC(C)Cc1ccc(C(C)C(=O)O)cc1 (centres undefined) [IBUPROFEN]
- activity at 200 µM [2]: 79%
- Activity [3]: 31%

Molecule: CCCCC[C@H](O)/C=C/[C@H]1[C@H](O)CC(=O)[C@@H]1CCCCCCC(=O)O [ALPROSTADIL]
- activity at 20 µM [4]: 69%

Molecule: COc1ccc2c(c1)c(CC(=O)O)c(C)n2C(=O)c1ccc(Cl)cc1 [INDOMETHACIN]
- Activity [5]: 56%
- Activity [6]: 11%

Molecule: CC(C(=O)O)c1cccc(C(=O)c2ccccc2)c1 (centres undefined) [KETOPROFEN]
- Activity [7]: 35%

Molecule: CCCCC[C@H](O)/C=C/[C@H]1OC(O)C[C@H](O)[C@@H]1C/C=C\CCCC(=O)O (some centres undefined) [THROMBOXANE B2]
- activity at 20 µM [8]: 66%
- Activity [9]: 76%
- Activity [10]: 77%
- activity at 20 µM [11]: 29%

Molecule: CS(=O)(=O)c1ccc(C2=C(c3ccccc3)C(=O)OC2)cc1 [ROFECOXIB]
- Activity [12]: 80%

B1: ATP-binding cassette sub-family C member 4 (Homo sapiens) (protein)
chain: T1 sequence (O15439 whole entry)
- Km [13]: 3.4 µM
- Km [14]: 2.1 µM
